One experiment has as its system Chlorella pyrenoidosa. Kind of experiment: MIC microtiter plate assay. In kind it is cell-based. The conditions noted are these: growth/no-growth after 14 or 21 days, 25°C. As to the method:
(§1) Efficacy studies were conducted on a variety of microorganisms with oxyfluorfen. Minimum Inhibitory Concentration (MIC) studies were conducted using microtiter plate assays. In this method, a wide range of concentrations was tested by preparing two-fold serial dilutions of the compound in 96-well plastic microtiter plates. All liquid media transfers were performed with calibrated single or multichannel digital pipetters. Stock solutions of compounds were prepared in appropriate solvents and dispensed to the growth medium. All subsequent dilutions in plates were made using the desired growth medium. The total volume of liquid in each well was 100 ul. The pure cultures used in this study were obtained from the Culture Collection of Algae at the University of Texas at Austin (UTEX). The mixed culture of algae was obtained from a cooling tower biofilm and maintained in liquid medium; microorganisms used as inocula were cultured in shaken liquid culture (50 ml of Bristol's medium, pH 7.0, 25°C); Journal of Phycology, 23s: 1-47, 1987) for one week or as needed to attain a desired cell mass. The cultures were then inoculated into the microtiter plates using a 96-prong multiple inoculator (5 µl inoculum); each well received a standard suspension of biomass (5% inoculum). Plates were incubated at 25°C under constant illumination (500 ft candles). The extent of growth was determined under low magnification with the aid of a microtiter plate reader. The growth in each cell was monitored periodically and growth/no-growth was recorded after 14 or 21 days.

For a further experiment, the system named is Clorococcum oleofaciens. The experiment can be described thus: MIC microtiter plate assay. In kind it is cell-based. The conditions noted are these: growth/no-growth after 14 or 21 days, 25°C. As to the method: as §1
The next experiment concerns Nostoc commune. The experiment can be described thus: MIC microtiter plate assay. Particulars: growth/no-growth after 14 or 21 days, 25°C. It is filed as cell-based. As to the method:
as §1

The test system of experiment [1] is Phormidium luridum var. olivace. The experiment can be described thus: MIC microtiter plate assay. In kind it is cell-based. Particulars: Drouetiella lurida; growth/no-growth after 14 or 21 days, 25°C. As to the method:
as §1

In another experiment the test system is Scendesmus quadricaudra. The experiment can be described thus: MIC microtiter plate assay. In kind it is cell-based. The conditions noted are these: growth/no-growth after 14 or 21 days, 25°C. As to the method:
as §1

In experiment [2] the test system is Selanastrum capricornutum. The experiment can be described thus: MIC microtiter plate assay. It is filed as cell-based. Particulars: growth/no-growth after 14 or 21 days, 25°C. As to the method:
as §1

Experiment [3] deals with Synechococcus leopooliensis. The experiment can be described thus: MIC microtiter plate assay. It is filed as cell-based. Particulars: growth/no-growth after 14 or 21 days, 25°C. As to the method: as §1
Experiment [4] relates to Mixed Cooling Tower Culture. The experiment can be described thus: MIC microtiter plate assay. It is filed as cell-based, mixed culture of algae. Particulars: growth/no-growth after 14 or 21 days, 25°C. How it is done:
as §1, with “days. […] Following the evaluation procedure of Example 3, compounds according to the following structural formula, with X and Y substituents according to Table 4A, were evaluated with the results shown in Table 4B. [drawing 4]” for “days.”

Experiment [5] concerns mixed cooling tower algae. The experiment can be described thus: Paint algicide test (latex paint on tongue depressors). In kind it is cell-based. Set-up: key to 7 Days Algal Growth / 10 Days Algal Growth / 14 Days Algal Growth: 0 = No Algal Growth; 5 = Moderate Algal Growth; 10 = Heavy Algal Growth. How it is done:
Solutions of oxyfluorfen were prepared as follows in 1-ounce (28.3g) glass vials. Oxyfluorfen concentrate (0.17 g) was added to 19.83 g latex paint formulation (described below) to give 2-lb oxyfluorfen/100 gal. (2 kg/833 l) paint solution; in a similar manner, 0.08 g oxyfluorfen concentrate was added to 19.92 g latex paint formulation to give 1-lb/100-gal (1 kg/833 l) solution. Oxyfluorfen concentrate (1.0 g) was added to 19.0 g mixture of 2 parts xylene/1 part cyclohexanone; 0.17 g of the resultant solution was added to 19.83 g latex paint formulation to give 0.1-lb/100-gal oxyfluorfen solution; in a similar manner, 0.016 g of xylene/cyclohexanone solution was added to 19.984 g latex paint formulation to give 0.01-lb/100-gal solution.
The solutions were stirred manually with Teflon spatulas and each was applied to two tongue depressors using #7 paint brushes. Two control tongue depressors were similarly prepared except without oxyfluorfen in the latex paint formulation. The tongue depressors were allowed to dry for one week and then inoculated with four 50 ul drops of mixed cooling tower algae (obtained from surface scrapings of industrial cooling towers and maintained in a modified Allen's media formulation, described in EXAMPLE 1).
The tongue depressors were placed on plastic stages within large petri dishes and the area around the stages was filled with deionized water. The petri dishes were covered and placed in a Precision (Model 816) low temperature (25C) illuminated incubator for one week; at this point the tongue depressors were re-inoculated with one ml of the mixed cooling tower algae and returned to the incubator. The tongue depressors where then checked daily for algal growth (visual); results are found in Part C.
Oxyfluorfen was added as a 24% emulsifiable concentrate in mixed organic solvents. The following formulation is a typical paint blend for testing of stabilization against algal activity. Texanol¿ is trimethyl-1,3-pentanediol monoisobutyrate supplied by Eastman Chemical; Rhoplex AC-64 is a commercially available latex of a copolymer of butyl acrylate and methyl methacrylate. This paint formulation has a pH of 9.4 and an initial viscosity of […] (Krebs units).

The mark [6] stands for this setting: 10 ppm (0.01 lb/100-gal) in latex paint.
[7] abbreviates: 100 ppm (0.10 lb/100-gal) in latex paint.
Setting [8] is: 1000 ppm (1.0 lb/100-gal) in latex paint.
Setting [9] is: 2000 ppm (2.0 lb/100-gal) in latex paint.

Molecules are shown by their SMILES. Values after ≈ are worked out from the molar mass of the structure shown.

On to `CCOc1cc(Oc2ccc(C(F)(F)F)cc2Cl)ccc1[N+](=O)[O-]` [Oxyfluorfen, oxyfluorfen], for which the MIC against Chlorella pyrenoidosa was 0.125 ppm; in the experiment with Clorococcum oleofaciens it was above 0.125 µg/mL; in the experiment with Nostoc commune, above 500 µg/mL; in [1] it was above 500 µg/mL; with Scendesmus quadricaudra, below 0.002 µg/mL; in [2], 0.008 µg/mL (≈ 0.0221 µM). For the same molecule, the MIC in experiment [3] was above 500 µg/mL; in experiment [4], below 0.004 µg/mL. The “7 Days Algal Growth” value in experiment [5] (setting [6]), in experiment [5] (setting [7]), in experiment [5] (setting [8]) and in experiment [5] (setting [9]) was 0 each time. Also, the “10 Days Algal Growth” value in [5] (setting [6]) was found to be 2; in [5] (setting [7]), 1; in [5] (setting [8]) it was 0; in [5] (setting [9]), 0. Further, the “14 Days Algal Growth” value in [5] (setting [6]) stood at 3; in experiment [5] (setting [7]) it was 1; in experiment [5] (setting [8]), 0; in [5] (setting [9]), 0. The “levels that significantly reduced the rate of algal growth” value in experiment [5] (for up to 14 days, in latex paint) is recorded as at most 10 ppm. Besides, in [5] (in latex paint), the “levels that totally inhibited algal growth” value is listed as “above 100 ppm”.

For the origin of these results see patent publication EP0384661A1, “Antialgal compositions comprising diphenylethers” (ROHM AND HAAS COMPANY, priority 1989, dated 1990).
